Key:
Type in all cases: cell-based
INCENP S446ph [1] = experiment: Immunofluorescence microscopy and high content imaging of INCENP S446ph after acute kinase inhibition in nocodazole-arrested mitotic cells; conditions: nocodazole-arrested mitotic HeLa cells, MG132 included
From the text: (§1) To confirm that Cyclin B1-Cdk1 was a bona fide kinase for INCENP S446, the inventors first conducted in vitro kinase assays. Indeed, Cyclin B1-Cdk1 efficiently phosphorylated S446 on a recombinant INCENP fragment containing residues 369-583, but not the TSS motif (S893/S894) in recombinant INCENP residues 825-918. In contrast, Aurora B was able to phosphorylate its known target, the TSS motif of INCENP, but not S446 (FIG. 4B). Furthermore, INCENP immunoprecipitated from nocodazole-arrested mitotic cells was recognized by the INCENP S446ph antibody, and this phosphorylation was sensitive to the Cdk inhibitor Roscovitine (FIG. 14). However, determining the direct substrates of Cyclin B1-Cdk1 in cells is complicated because inhibition of Cdk1 prevents mitotic entry and/or forces mitotic exit, leading to indirect effects on multiple kinase substrates. […] Aurora B relocates to the spindle midzone at the end of mitosis so, as an additional way to focus on cells still in mitosis, the inventors analyzed only cells in which Aurora B remained on chromosomes. […] Also consistent with Cyclin B1-Cdk1 being the kinase responsible, INCENP S446ph was detected on chromosomes in mitotic cells from early mitosis until metaphase when Cyclin B1-Cdk is active, but was lost at anaphase when Cyclin B is degraded (FIG. 4D). […]

INCENP TSSph = experiment: Immunofluorescence microscopy and high content imaging of INCENP TSSph after acute kinase inhibition in nocodazole-arrested mitotic cells; conditions: over 9 minutes; nocodazole-arrested mitotic HeLa cells, MG132 included
From the text: as §1

INCENP S446ph [2] = experiment: INCENP immunoprecipitation from nocodazole-arrested mitotic HeLa 1C8 cells and immunoblotting with INCENP S446ph antibody; conditions: 100 μM, 2 h, with 20 μM MG132; nocodazole-arrested mitotic HeLa 1C8 cells; immunoblot
Experimental: HeLa 1C8 cells (Dai et al., 2005) were treated with 0.5 μg/ml nocodazole for 8 h. After collecting mitotic cells by “shake off” and replating, either 100 μM Roscovitine or DMSO (vehicle control) was added together with 20 μM MG132 in the continued presence of nocodazole. After 2 h, cell lysates were prepared in 50 mM Tris, 0.3 M NaCl, 0.5% Triton X-100, 10 mM MgCl2, 5 mM EDTA, 1 mM dithiothreitol, 1 mM PMSF, 0.1 μM okadaic acid, 10 mM NaF, 20 mM β-glycerophosphate, 0.25 U/μl benzonase nuclease, cOmplete™ Mini EDTA-free Protease Inhibitor and subjected to immunoprecipitation with rabbit anti-INCENP and Dynabeads Protein G (ThermoFisher). After washing, bound proteins were eluted by boiling in SDS-PAGE sample buffer.
SDS-PAGE was carried out using the NuPAGE Bis-Tris system (ThermoFisher). Proteins were transferred onto PVDF membranes using standard techniques. Membranes were blocked with 2.5% milk in PBS, 0.1% Tween20 for 1 h, then with primary antibodies in 2.5% milk, PBS, 0.1% Tween20 overnight at 4° C. After washing 3 times with PBS, 0.1% Tween20, they were incubated for 1 h with secondary antibodies in 2.5% milk, PBS, 0.1% Tween20, washed three times with PBS, 0.1% Tween20 and once with PBS, before development using ECL substrate (Pierce) and exposure to X-ray film. Stripping of immunoblots was carried out with Restore Western Blot Stripping Buffer (ThermoFisher).

| SMILES | reduction in intensity of INCENP S446ph (INCENP S446ph [1]; over 9 minutes, only cells with Aurora B on chromosomes) [%] | effect on INCENP TSSph (Aurora B phosphorylation site) (INCENP TSSph) | sensitivity of INCENP S446 phosphorylation to inhibitor (INCENP S446ph [2]) | effect on INCENP S446ph (INCENP S446ph [1]; over the same time period (9 minutes)) |
| --- | --- | --- | --- | --- |
| O=C1NC(=NCc2cccs2)S/C1=C\c1ccc2ncccc2c1 [RO-3306] | 50 | unaffected |  |  |
| CC[C@H](CO)Nc1nc(NCc2ccccc2)c2ncn(C(C)C)c2n1 [Roscovitine] |  |  | sensitive |  |
| COc1cc2c(Nc3ccc(NC(=O)c4ccccc4)cc3)ncnc2cc1OCCCN1CCOCC1 [ZM447439] |  | rapid decline |  | did not influence |

From patent US20220213524A1, “KINASE SCREENING ASSAYS” (University of Newcastle upon Tyne, priority 2019, published 2022)
